Active and inactive are the calls of the source. No cut-off for these calls is given here.

The first experiment has as its system RAW264.7. Put plainly: Immunomodulatory activity in mouse RAW264.7 cells assessed as TNF alpha production at 1 to 1000 ng/ml after 18 hrs by ELISA method (reference value: 4.4 +/- 3.4 pg/ml). It is filed as functional. (In general: ELISA stands for enzyme-linked immunosorbent assay.)
In the case of `O=[N+]([O-])c1ccc(O[C@@H]2O[C@@H]([C@H](O)CF)[C@H](O)[C@H]2O[C@@H]2O[C@@H]([C@H](O)CF)[C@H](O)[C@H]2O)cc1`, the Activity is more than 200 pg/mL.

A further experiment relates to RAW264.7. Put plainly: Immunomodulatory activity in mouse RAW264.7 cells assessed as increase in TNF alpha production after 18 hrs by ELISA method (reference value: 4.4 +/- 3.4 pg/ml). It is filed as functional.
For `CCCCCCCCO[C@@H]1O[C@@H]([C@H](O)CF)[C@H](O)[C@H]1O[C@@H]1O[C@@H]([C@H](O)CF)[C@H](O)[C@H]1O`, the Activity is 600 pg/mL.

In the next experiment the test system is RAW264.7. The experiment can be described thus: Immunomodulatory activity in mouse RAW264.7 cells assessed as TNF alpha production at 1 to 1000 ng/ml after 18 hrs by ELISA method. It is filed as functional, cell-based.
In the case of `CCCCCCCCO[C@@H]1O[C@@H]([C@H](O)CO)[C@H](O)[C@H]1O[C@@H]1O[C@@H]([C@H](O)CO)[C@H](O)[C@H]1O[C@H]1O[C@H]([C@H](O)CO)[C@@H](O)[C@@H]1O[C@@H]1O[C@@H]([C@@H](O)CO)[C@H](O)[C@H]1O[C@H]1O[C@H]([C@@H](O)CO)[C@@H](O)[C@@H]1O` (stereo in doubt), the result was Active.
The same measure, in the same setting: for `C[C@@H](O)[C@@H]1O[C@@H](O[C@H](CO)[C@@H]2O[C@@H](Oc3ccc([N+](=O)[O-])cc3)[C@H](O)[C@H]2O)[C@H](O)[C@H]1O` the value was “inactive”.
The same measure, in the same setting: for `CCCCCCCCO[C@@H]1O[C@@H]([C@H](O)CO)[C@H](O)[C@H]1O[C@@H]1O[C@@H]([C@H](O)CO)[C@H](O)[C@H]1O` the value was “Active”; for `O=[N+]([O-])c1ccc(O[C@@H]2O[C@@H]([C@H](O)CO)[C@H](O)[C@H]2O[C@@H]2O[C@@H]([C@H](O)CF)[C@H](O)[C@H]2O)cc1`, “inactive”.
With `C[C@@H](O)[C@@H]1O[C@@H](O[C@@H]2[C@@H](O)[C@H](Oc3ccc([N+](=O)[O-])cc3)O[C@H]2[C@H](O)CO)[C@H](O)[C@H]1O`, the outcome was inactive.
Still for that read-out and setting: in the case of `CCCCCCCCO[C@H]1O[C@H]([C@@H](O)CF)[C@@H](O)[C@@H]1O[C@@H]1O[C@@H]([C@@H](O)CO)[C@H](O)[C@H]1O[C@@H]1O[C@@H]([C@@H](O)CO)[C@H](O)[C@H]1O` (stereo in doubt) it was “Active”; in that of `CCCCCCCCO[C@H]1O[C@H]([C@@H](O)CO)[C@@H](O)[C@@H]1O[C@@H]1O[C@@H]([C@@H](O)CO)[C@H](O)[C@H]1O[C@@H]1O[C@@H]([C@@H](O)CO)[C@H](O)[C@H]1O` (stereo in doubt), “Active”; in that of `C[C@@H](O)[C@@H]1O[C@@H](OC[C@@H](O)[C@@H]2O[C@@H](Oc3ccc([N+](=O)[O-])cc3)[C@H](O)[C@H]2O)[C@H](O)[C@H]1O`, “inactive”.
The same measure, in the same setting: for `C[C@@H](O)[C@@H]1O[C@@H](O[C@H]2[C@H](O[C@H]3[C@H](Oc4ccc([N+](=O)[O-])cc4)O[C@@H]([C@H](O)CO)[C@@H]3O)O[C@@H]([C@@H](C)O)[C@@H]2O)[C@H](O)[C@H]1O` the value was “Active”; for `CCCCCCCCO[C@@H]1O[C@@H]([C@H](O)CO[C@@H]2O[C@@H]([C@H](O)CO)[C@H](O)[C@H]2O)[C@H](O)[C@H]1O`, “Active”; for `O=[N+]([O-])c1ccc(O[C@@H]2O[C@@H]([C@H](O)CO[C@@H]3O[C@@H]([C@H](O)CF)[C@H](O)[C@H]3O)[C@H](O)[C@H]2O)cc1`, “inactive”.
On the same count and under the same terms, for `C[C@@H](O)[C@@H]1O[C@@H](O[C@H]2[C@H](Oc3ccc([N+](=O)[O-])cc3)O[C@@H]([C@H](O)CO)[C@@H]2O)[C@H](O)[C@H]1O` the value was “inactive”.
For `CCCCCCCCO[C@H]1O[C@H]([C@H](C)O)[C@@H](O)[C@@H]1O[C@@H]1O[C@@H]([C@@H](O)CO)[C@H](O)[C@H]1O[C@@H]1O[C@@H]([C@@H](O)CO)[C@H](O)[C@H]1O` (stereo in doubt), the result was Active.
Still for that read-out and setting: in the case of `CCCCCCCCO[C@@H]1O[C@@H]([C@H](O)CO)[C@H](O)[C@H]1O[C@H]1O[C@H]([C@@H](O)CO)[C@@H](O)[C@@H]1O[C@@H]1O[C@@H]([C@@H](O)CO)[C@H](O)[C@H]1O[C@@H]1O[C@@H]([C@@H](O)CO)[C@H](O)[C@H]1O` (stereo in doubt) it was “Active”; in that of `O=[N+]([O-])c1ccc(O[C@@H]2O[C@@H]([C@H](O)CO)[C@H](O)[C@H]2O[C@@H]2O[C@@H]([C@H](O)CO)[C@H](O)[C@H]2O[C@@H]2O[C@@H]([C@H](O)CO)[C@H](O)[C@H]2O)cc1`, “Active”; in that of `O=[N+]([O-])c1ccc(O[C@@H]2O[C@@H]([C@H](O)CO)[C@H](O)[C@H]2O[C@@H]2O[C@@H]([C@H](O)CO)[C@H](O)[C@H]2O)cc1`, “Active”.

The values above are taken from ChEMBL document CHEMBL3779844, “Biocatalyzed synthesis of difuranosides and their ability to trigger production of TNF-α” (2016).
